Test results: paper PMC9888311, “Neonatal NET-Inhibitory Factor improves survival in the cecal ligation and puncture model of polymicrobial sepsis by inhibiting neutrophil extracellular traps” (Frontiers in Immunology, 2023)
Where no end group is shown, it is not given here.

Tests used:
[1] = test system: CLP model of polymicrobial sepsis; assay: Survival over 6 days after cecal ligation and puncture (CLP); assay type: in vivo, mouse (outbred Swiss Webster)
Method: Mice were anesthetized with 3% isoflurane in an induction chamber, and anesthesia was maintained by use of inhalation via nose cone. Sepsis was induced by cecal ligation and puncture (CLP) as previously described ([30], [31]). […] The animals received subcutaneous sterile isotonic saline (0.5 mL) for fluid resuscitation immediately after surgery. Sham-operated mice were subjected to identical procedures, except that ligation and puncture of the cecum was omitted. Survival of mice subjected to CLP or sham injury was determined daily for 6 days. Twenty-four and 48 hours after CLP, all animals were scored for clinical illness severity as previously described ([32]) by an examiner blinded to treatment arm. In this assessment, higher scores reflect increased illness severity with non-surviving mice receiving a score of 10. These mice were included in the statistical analysis. In additional experiments, mature Swiss-webster mice were treated with sham surgery or CLP procedure. […]
For our survival studies, animals were randomly assigned to one of five groups: (a) sham-operated group (Sham); (b) DMSO vehicle treatment group (CLP + DMSO (0.003%/5% Dextrose/H2O, IV); (c) nNIF treatment group ([…], 0.003%/5% Dextrose/H2O, IV); (d) scrambled peptide control treatment group (CLP + nNIF-SCR, 1 mg/kg, 0.003%/5% Dextrose/H2O, IV); and (e) antibiotic treatment group ([…]). Groups a-d received their respective treatment at 4 and 10 hours after CLP. Group e received two doses of meropenem at 4 and 10 hours after CLP and then daily injections for 6 days. In another set of survival studies, mice were treated with nNIF or nNIF-SCR (1 mg/kg, IV) 4 and 10 hours after CLP in combination therapy with a suboptimal dose of meropenem (8 mg/kg, IP) also given 4 and 10 hours after CLP and then once daily. […] Both aliquots of blood and peritoneal fluid were used for the following analyses: leukocyte cell count and differential, bacterial CFU studies, NET quantitation using MPO-DNA complex ELISA, live cell imaging, and multiplex cytokine profiling with specific ELISA confirmation.

[2] = test system: CLP model of polymicrobial sepsis; assay: Blinded clinical illness severity score after CLP; assay type: in vivo, mouse (outbred Swiss Webster); settings: compared to vehicle control
Method: Mice were anesthetized with 3% isoflurane in an induction chamber, and anesthesia was maintained by use of inhalation via nose cone. Sepsis was induced by cecal ligation and puncture (CLP) as previously described ([30], [31]). […] The animals received subcutaneous sterile isotonic saline (0.5 mL) for fluid resuscitation immediately after surgery. Sham-operated mice were subjected to identical procedures, except that ligation and puncture of the cecum was omitted. Survival of mice subjected to CLP or sham injury was determined daily for 6 days. Twenty-four and 48 hours after CLP, all animals were scored for clinical illness severity as previously described ([32]) by an examiner blinded to treatment arm. In this assessment, higher scores reflect increased illness severity with non-surviving mice receiving a score of 10. These mice were included in the statistical analysis. In additional experiments, mature Swiss-webster mice were treated with sham surgery or CLP procedure. At 4 hours after surgery, mice underwent blinded clinical illness severity assessment, measurement of body weight and temperature, peritoneal fluid and whole blood neutrophil counts, whole blood platelet counts, and plasma creatinine level determination.

TNF-α = assay: Peritoneal fluid cytokine multiplex array, TNF-α; assay type: in vivo, mouse (outbred Swiss Webster); settings: 24 h after CLP; nNIF 1 mg/kg at 4 and 10 hours; compared to all other treatment groups; N=5-9
Method: (§1) Peritoneal fluid cytokines were analyzed using a mouse Cytokine/Chemokine Panel I Multiplex Array (Millipore Sigma catalog# HCYTMAG60-PMX41) according to manufacturer’s instructions on a Luminex 200 instrument. Bacterial counts in whole blood and peritoneal lavage were determined 24 hours after CLP. Briefly, peritoneal fluid and blood samples were collected, serially diluted, plated on LB-agar dishes, and incubated at 37°C for 24 hours. The number of bacterial colonies was counted and expressed as CFU/mL.

[3] = test system: peritoneal fluid leukocytes; assay: Peritoneal fluid WBC and neutrophil counts (flow cytometry); assay type: in vivo, mouse (outbred Swiss Webster); settings: 24 hours after CLP; nNIF 1 mg/kg IV at 4 and 10 hours after CLP; N=5-9
Method: (§2) Twenty-four hours after CLP or sham surgery, total white blood cell and differential neutrophil counts were determined both in whole blood samples collected from orbital vein using heparinized capillaries tubes and peritoneal fluid by washing with 3 mL of PBS, respectively. Then, samples were incubated with CD45 APC-Cy7 (Biolegend), CD11b PE-Cy7 (EBioscience), Ly6G BV510 (Biolegend), and CD16/CD32 (Fc-block, EBioscience) for 30 minutes at 37 °C. Thirty minutes later, cells were washed, fixed, and ran on a Beckman Coulter Cytoflex located in the University of Utah Flow Cytometry Core.

IL-10 = assay: Peritoneal fluid cytokine multiplex array, IL-10; assay type: in vivo, mouse (outbred Swiss Webster); settings: 24 h after CLP; nNIF 1 mg/kg at 4 and 10 hours; N=5-9
Method: as §1

IL-6 = assay: Peritoneal fluid cytokine multiplex array, IL-6; assay type: in vivo, mouse (outbred Swiss Webster); settings: 24 h after CLP; nNIF 1 mg/kg at 4 and 10 hours; N=5-9
Method: as §1

whole blood leukocytes = assay: Whole blood WBC and neutrophil counts (flow cytometry); assay type: in vivo, mouse (outbred Swiss Webster); settings: 24 hours after CLP; nNIF 1 mg/kg IV at 4 and 10 hours after CLP; N=3-5
Method: as §2

neutrophils = neutrophils exposed to nNIF; cited from earlier work
Description: When considering the low DNA staining on confocal imaging of peritoneal leukocytes, it may be that the NET inhibition contributes to decreased endothelial dysfunction ([48]) and prevents immunothrombosis ([22]) which then leads to decreased inflammation. Alternatively, or in combination, the lack of NETs may lead to decreased opportunities to capture bacteria and thereby limit the chance that circulating PMNs will recognize and become acti ...

[4] = single dose 10 mg/kg, retro-orbital venous injection; LC/MS/MS; N=2-3 mice/time point
Method: PK plasma sample generation – Mature Swiss-Webster mice were inject ed with nNIF (10 mg/kg,
0.003% DMSO in PBS) via retro-orbital venous injection. Blood samples were obtain ed via
cheek bleed and cardiac puncture at 5, 15, 30, and 45 minutes, and at 1, 4, 8, 12, 24, and 48 hours
after nNIF injection. Only three blood samples were drawn from each indiv idual mouse, and
multiple mice were used to generate 2 -3 plasma samples per timepoint for PK analysis. Blood
samples were collected i n heparin coated capillary tubes, centrifuged at 1000 rpm for 10 minutes,
and snap-frozen in liquid nitrogen. Plasma samples were kept frozen at -80°C until analysis.
Mouse plasma PK quantitative bioanalysis – Flash -frozen mouse samples were thawed on ice
and spiked with 100 nM nNIF-H; precipitated with five volumes of 90% acetonitrile, 1% acetic
acid, and 0.1% formic acid in water; and filtered through a Phree Phosphol ipid Removal
Extraction Plate (Pheno menex). Standards with known concent rations of nNIF (100 pM to 25
μM) and nNIF-H (100 n M) spiked into mouse plasma were p repared using the same methods.
Supernatants were an alyzed by LC/MS/MS on an ExionLC UHPLC system coupled to a QTRAP […]
positive-ion mode. Mass transitions (m/z) used for quantitation were 846.9/ 976.1 and
determined from the nNIF/nNIF-H peak area ratio in extracted-ion chromat ograms compared […]

[5] = nNIF 1 mg/kg IV at 4 and 10 hours after CLP

C[C@@H](O)[C@H]1C(=O)N2C(C(=O)O)=C(S[C@@H]3CN[C@H](C(=O)N(C)C)C3)[C@H](C)[C@H]12 [meropenem, reference compound]
6-day survival ([1]; sub-optimal meropenem 8 mg/kg IP at 4 and 10 hours after CLP then once daily): 40%

KFNKPFVFLMIEQNTKSPLFMGKVVNPTQ-OH [nNIF, neonatal NET-Inhibitory Factor]
illness severity score at 48 hours ([2]; nNIF 0.5 mg/kg IV at 4 and 10 hours after CLP): improvement in the illness severity scores
illness severity score at 24 hours [2, 5]: improvement in the illness severity scores
illness severity score at 48 hours [2, 5]: improvement in the illness severity scores
TNF-α level in peritoneal fluid (TNF-α): decreased TNF-α levels in peritoneal fluid
6-day survival ([1]; nNIF 0.1 mg/kg IV, 2 doses at 4 and 10 hours after CLP, N=10, vehicle (DMSO) control 0%): 30%
6-day survival ([1]; nNIF 0.5 mg/kg IV, 2 doses at 4 and 10 hours after CLP, N=10, vehicle (DMSO) control 0%): 70%
peritoneal WBC and neutrophil counts [3]: without altering peritoneal WBC and neutrophil counts
IL-10 level in peritoneal fluid (IL-10): lack of an nNIF-associated alteration in IL-10 levels
IL-6 level in peritoneal fluid (IL-6): decreased compared to meropenem treated mice but not compared to the nNIF-SCR treatment group
whole blood white blood cell and neutrophil counts (whole blood leukocytes): without affecting white blood cell or neutrophil counts
neutrophil ability to generate reactive-oxygen species and phagocytize E. coli bioparticles (neutrophils): still maintain their ability
nNIF plasma concentration-time course [4]: initial rapid decrease in nNIF plasma concentrations followed by a slower rate of decay
